Publication PMC7842235 (Journal of proteome research, 2020)

Biological target: T1, Tryp-N (Thermochaetoides thermophila, UniProt G0SEK4)
T1 sequence (G0SEK4 68-292): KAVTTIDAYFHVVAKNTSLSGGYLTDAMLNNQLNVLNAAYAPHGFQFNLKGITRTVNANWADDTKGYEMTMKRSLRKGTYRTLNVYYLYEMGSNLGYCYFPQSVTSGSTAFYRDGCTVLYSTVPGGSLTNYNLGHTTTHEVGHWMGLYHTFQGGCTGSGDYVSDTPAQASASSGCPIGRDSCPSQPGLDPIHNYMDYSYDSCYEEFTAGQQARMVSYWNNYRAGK
Test: protease activity assay, probably FITC-labeled casein
Assay type: biochemical

For `N=C(N)c1ccccc1` [benzamidine], the IC50 was ~500 µM.
